Legend:
Experiment in all cases: relative viability (nuclei count vs DMSO), 5 days (fraction); higher = more cells survive
[1] = compound: C1=CC2=C(C=C(C(=C2N=C1)O)N=NC3=CC4=C(C=C3)C=C(C=C4)S(=O)(=O)O)S(=O)(=O)O + NC(=O)Nc1cc(-c2cccc(F)c2)sc1C(=O)N[C@H]1CCCNC1 [AZD7762] (partner 0.2 µM)
Method in brief: (§1)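 Cells from lung cancer lines were seeded into 1536-well plates and, one day later, dosed by pin tool. Treatments were either a single drug or a fixed dose of an anchor drug with five library-drug doses (not always all listed) in √10 steps. After 5 days, nuclei were stained in a one-step fixation (final 0.05% Triton X-100, 1% formaldehyde, 1 ug/ml Hoechst) and counted on 4× images, and relative viability is the treated-to-vehicle nuclei ratio, as the median of duplicate plates.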

[2] = compound: C1=CC2=C(C=C(C(=C2N=C1)O)N=NC3=CC4=C(C=C3)C=C(C=C4)S(=O)(=O)O)S(=O)(=O)O + O=C(c1cc(Cc2n[nH]c(=O)c3ccccc23)ccc1F)N1CCN(C(=O)C2CC2)CC1 [Olaparib] (partner 8 µM)
Method in brief: as §1

AT-7519 + Foretinib = compound: O=C(NC1CCNCC1)c1n[nH]cc1NC(=O)c1c(Cl)cccc1Cl [AT-7519] + COc1cc2c(Oc3ccc(NC(=O)C4(C(=O)Nc5ccc(F)cc5)CC4)cc3F)ccnc2cc1OCCCN1CCOCC1 [Foretinib] (partner 0.25 µM)
Method in brief: as §1

AT-7519 + Crizotinib = compound: O=C(NC1CCNCC1)c1n[nH]cc1NC(=O)c1c(Cl)cccc1Cl [AT-7519] + C[C@@H](Oc1cc(-c2cnn(C3CCNCC3)c2)cnc1N)c1c(Cl)ccc(F)c1Cl [Crizotinib] (partner 1 µM)
Method in brief: as §1

Row | Cell Line | relative viability ([1]; first compound 0.08 µM) | relative viability ([1]; first compound 0.253 µM) | relative viability ([1]; first compound 0.8 µM) | relative viability ([1]; first compound 2.53 µM) | relative viability ([1]; first compound 8 µM) | relative viability ([2]; first compound 0.08 µM) | relative viability ([2]; first compound 0.253 µM) | relative viability ([2]; first compound 0.8 µM) | relative viability ([2]; first compound 2.53 µM) | relative viability ([2]; first compound 8 µM) | relative viability (AT-7519 + Foretinib; first compound 0.01 µM) | relative viability (AT-7519 + Foretinib; first compound 0.03162 µM) | relative viability (AT-7519 + Foretinib; first compound 0.3162 µM) | relative viability (AT-7519 + Foretinib; first compound 1 µM) | relative viability (AT-7519 + Crizotinib; first compound 0.01 µM) | relative viability (AT-7519 + Crizotinib; first compound 0.03162 µM) | relative viability (AT-7519 + Crizotinib; first compound 0.3162 µM) | relative viability (AT-7519 + Crizotinib; first compound 1 µM)
1 | HCC-366 | 0.291 | 0.273 | 0.26 | 0.272 | 0.291 | 0.432 | 0.402 | 0.335 | 0.361 | 0.319 | 0.994 | 0.896 | 0.941 | 0.717 | 0.463 | 0.668 | 0.457 | 0.179
2 | HCC-827 | 0.184 | 0.279 | 0.235 | 0.192 | 0.246 | 0.68 | 0.524 | 0.647 | 0.568 | 0.687 | 1.03 | 0.991 | 1.03 | 0.964 | 0.895 | 0.945 | 0.862 | 0.855
3 | HOP-62 | 0.715 | 0.34 | 0.607 | 0.731 | 0.57 | 0.403 | 0.376 | 0.312 | 0.465 | 0.516 | 1.11 | 1.16 | 1.04 | 0.977 | 0.893 | 0.966 | 0.675 | 0.889
4 | IA-LM | – | – | – | – | – | 1.01 | 0.777 | 0.788 | 0.747 | 0.952 | 1.25 | 1.53 | 1.08 | 0.918 | 1.02 | 1.03 | 0.573 | 0.0695
5 | LC-2-ad | 0.894 | 0.802 | 0.829 | 0.847 | 0.796 | 0.72 | 0.671 | 0.749 | 0.683 | 0.744 | 0.975 | 0.984 | 0.85 | 0.452 | 0.465 | 0.467 | 0.499 | 0.234
6 | NCI-H520 | – | – | – | – | – | 0.327 | 0.342 | 0.337 | 0.301 | 0.387 | 0.922 | 0.624 | 0.718 | 0.593 | 0.753 | 0.768 | 0.595 | 0.269
7 | NCI-H522 | 0.783 | 0.932 | 0.971 | 0.787 | 0.714 | 0.601 | 0.625 | 0.564 | 0.561 | 0.708 | – | – | – | – | – | – | – | –
8 | NCI-H661 | – | – | – | – | – | 0.744 | 0.744 | 0.831 | 0.761 | 0.72 | 1.05 | 0.875 | 1.05 | 0.468 | 0.978 | 1.22 | 1.16 | 1.04
9 | NCI-H1299 | – | – | – | – | – | 1.01 | 0.95 | 0.935 | 0.956 | 0.976 | 1.13 | 1.06 | 1.1 | 1.15 | 1.03 | 0.997 | 0.947 | 0.31
10 | NCI-H1395 | 0.383 | 0.404 | 0.395 | 0.411 | 0.358 | 0.498 | 0.47 | 0.489 | 0.469 | 0.402 | 0.991 | 1.12 | 0.961 | 0.786 | – | – | – | –
11 | NCI-H1563 | – | – | – | – | – | – | – | – | – | – | 0.846 | 0.867 | 0.948 | 0.957 | 0.857 | 0.809 | 1.02 | 0.702
12 | NCI-H1623 | – | – | – | – | – | – | – | – | – | – | 0.86 | 0.834 | 0.997 | 0.711 | – | – | – | –
13 | NCI-H1648 | – | 0.712 | – | – | 0.717 | – | 0.793 | – | – | 0.893 | – | – | – | – | – | – | – | –
14 | NCI-H1650 | – | – | – | – | – | 0.825 | 0.677 | 0.781 | 0.812 | 0.894 | 1.15 | 1.12 | 0.914 | 0.295 | 1.26 | 0.956 | 0.576 | 0.169
15 | NCI-H1792 | 1 | 0.655 | 0.723 | 0.715 | 0.836 | 0.579 | 0.253 | 0.355 | 0.507 | 0.432 | – | – | – | – | 0.548 | 0.916 | 0.904 | 1.09
16 | NCI-H1793 | 0.411 | 0.407 | 0.481 | 0.497 | 0.455 | 1 | 0.762 | 0.883 | 0.952 | 0.891 | 0.679 | 0.646 | 0.726 | 0.488 | – | – | – | –
17 | NCI-H2009 | – | – | – | – | – | 0.656 | 0.663 | 0.681 | 0.743 | 0.711 | 1.33 | 1.18 | 1.27 | 0.686 | 1.21 | 1.07 | 1.12 | 0.295
18 | NCI-H2023 | – | – | – | – | – | 0.509 | 0.443 | 0.442 | 0.528 | 0.416 | 0.962 | 0.914 | 1.05 | 0.459 | 0.702 | 0.697 | 0.605 | 0.125
19 | NCI-H2228 | – | – | – | – | – | 0.779 | 0.772 | 0.658 | 0.851 | 0.751 | 0.833 | 0.789 | 0.814 | 0.595 | 0.549 | 0.379 | 0.403 | 0.313
20 | NCI-H2342 | 0.603 | 0.541 | 0.463 | 0.462 | 0.582 | 0.476 | 0.466 | 0.452 | 0.462 | 0.711 | 1.02 | 0.972 | 0.977 | 0.965 | – | – | – | –
21 | SK-LU-1 | – | – | – | – | – | 0.603 | 0.475 | 0.399 | 0.567 | 0.512 | 0.803 | 0.794 | 0.88 | 0.433 | 1.12 | 0.799 | 0.713 | 0.48
22 | SK-MES-1 | – | – | – | – | – | 0.793 | 0.703 | 0.609 | 0.691 | 0.707 | 0.907 | 1.09 | 0.735 | 0.919 | 1.05 | 0.903 | 0.854 | 0.787
23 | SW 900 | 0.597 | 0.644 | 0.598 | 0.588 | 0.666 | 1.1 | 0.826 | 0.75 | 0.878 | 0.757 | 0.792 | 0.68 | 0.858 | 0.442 | – | – | – | –
24 | SW 1573 | – | – | – | – | – | 0.574 | 0.413 | 0.523 | 0.483 | 0.29 | 0.797 | 0.918 | 0.722 | 0.543 | 0.817 | 0.755 | 0.84 | 0.368
